Assay results taken from patent US7176192B2, “Method for treating patients for radiation exposure” (BioNumerik Pharmaceuticals, Inc., priority 2001, dated 2007).

Experiments:
[1] = test system: dogs; assay: intravenous administration of dimesna to dogs, tolerability; type: in vivo; details: intravenously, doses higher than 3750 mg/kg
Source text: (§1) Mesna and dimesna, as well as some analogues of these compounds, have excellent toxicity profiles in mammalian species. However, it is clear from our earlier discoveries that dimesna has a much lower degree of toxicity relative to mesna; this lower degree of toxicity for dimesna imparts additional therapeutic value to this invention for radiation therapy since it is contemplated that chronic or high doses of dimesna will be needed in some circumstances in order to provide adequate prophylaxis for radiation toxicity as well as for treatment of acute or chronic radiation toxicity.

[2] = test system: humans; assay: administration of dimesna to humans, tolerability; type: in vivo; details: doses exceeding 15 g/m^2
Source text: as §1

[3] = test system: mice; assay: intravenous administration of dimesna to mice, tolerability; type: in vivo; details: intravenously, doses higher than 3750 mg/kg
Source text: as §1

[4] = accepted value, species not stated; cited from earlier work

| Structure (SMILES) | adverse effects [1] | adverse effects [2] | adverse effects [3] | oral LD50 [4] [mg/kg] |
| --- | --- | --- | --- | --- |
| O=S(=O)([O-])CCSSCCS(=O)(=O)[O-].[Na+].[Na+] [Dimesna, disodium 2,2′-dithiobis ethane sulfonate] | no adverse effects | no major adverse effects | no adverse effects |  |
| [Cl-].[Na+] [common table salt] |  |  |  | 3750 |
